Assay results: patent US12252701B2, “Chimeric antigen receptor T cell therapy” (KITE PHARMA, INC., priority 2020, dated 2025)
Where two headings read alike, the source gives them in different places.

Assays:
[1] = system: CD19 CAR T cells; assay: CAR T cell cytokine production (Luminex) under CD19 K562, KIP-1 or CD2/3/28 stimulation; conditions: 72 h
[2] = system: CAR-T cells; assay: CAR-T cell expansion assay (KIP-1 or CD3/CD28 stimulation); conditions: CD3/CD28
[3] = Clinical pharmacokinetic data converted to in vitro concentrations; conditions: human, in vivo
Excerpt: Given the different potencies of the JAK inhibitors and different pharmacokinetic properties for each drug, it was sought to test each drug at a relevant range of physiological concentrations based on clinical dosing and reported pharmacokinetic data from repeat dose studies. Reported Cmax values in patient sera were converted to in vitro concentrations and adjusted for reported plasma protein binding.

[4] = system: NALM6.GFP.LUC.CD19 target cells
[5] = in vitro; conditions: human, CAR-T cells
[6] = plasma protein binding, reported; cited from earlier work
[7] = system: phospho-STAT panel (pSTAT3/4/5), CD3+ T cells; assay: phospho-STAT induction by IL-6, MesoScale Discovery phospho-STAT panel; type: cell-based, human; conditions: CD3+ T cells; for pSTAT3: MSD signal (No stim. 689, IL-6 alone 33641); for pSTAT4: MSD signal (No stim. 1964, IL-6 alone 15405); for pSTAT5: MSD signal (No stim. 9210, IL-6 alone 17743)
Method: CD19 CAR-T, PBMC or CD3+ T cells (AllCells) were thawed and rested 0/N at 37° C. in R10 media. Cells were seeded at 700,000 cells/well and were either untreated or treated with 100 ng/ml IL6+drug at indicated concentrations for 20 minutes at 37° C. The cells were then washed with cold PBS and followed by 60 μl of Tris lysis buffer (provided by MSD) for 30 minutes on ice. Lysates were collected by spin down for 10 minutes at >10,000 rpm. 25 μl/well per condition was used for MesoScale Discovery (MSD) assay using the phospho-STAT panel (pSTAT3/4/5) from MesoScale Discovery following the manufacturer's protocol. pSTAT panel plates were blocked with 150 μl of blocker A solution for 1 hr at RT with shaking. Plates were washed three times with 1× Tris wash buffer. 25 μl of lysate samples were added per well, incubated 2 hr at room temperature or at 4° C. overnight. Plates were washed 3 times with 1× tris wash buffer and then 25 μl of detection antibody solution were added to each well and incubated for 1 hr at room temperature with shaking. Plates were washed and 1× read buffer added to each well and plates were read on the MSD instrument.

[8] = 100 ng/ml IL-6 + drug 10 uM, 20 min

**Q.** What does the source list for C[C@H]1C[C@@H]2[C@H]([C@@H](O)C[C@@]3(C)[C@H]2CC[C@]3(O)C(=O)CO)[C@@]2(C)C=CC(=O)C=C12 [Methlyprednisolone]?
**A.** Suppression of cytokine production, IL-6 (IC50) ([1]; CD3/CD28 stimulation): Suppress; Suppression of cytokine production, MCP-1, % inh. ([1]; CD3/CD28 stimulation): >80% inh.; Suppression of cytokine production, TNFa, % inh. ([1]; CD3/CD28 stimulation): >50% inh.; Suppression of cytokine production, IL-6 (IC50) ([1]; K562-CD19 stimulation): Suppress; Suppression of cytokine production, MCP-1 (IC50) ([1]; K562-CD19 stimulation): Suppress; Suppression of cytokine production, MIG (IC50) ([1]; K562-CD19 stimulation): Suppress; Suppression of cytokine production, TNFa (IC50) ([1]; K562-CD19 stimulation): Suppress; Suppression of cytokine production, IL-6, % inh. ([1]; KIP-1 stimulation): 66% inh.; Suppression of cytokine production, IL-10, % inh. ([1]; KIP-1 stimulation): 50% inh.; Suppression of cytokine production, MCP-1, % inh. ([1]; KIP-1 stimulation): 66% inh.; Suppression of cytokine production, MIG, % inh. ([1]; KIP-1 stimulation): 50% inh.; Suppression of cytokine production, TNFa, % inh. ([1]; KIP-1 stimulation): 75% inh.; IC50 ([1]; read-out: Suppression of cytokine production, GMCSF (IC50), CD3/CD28 stimulation): > 10 µM; IC50 ([1]; read-out: Suppression of cytokine production, GMCSF (IC50), KIP-1 stimulation): > 10 µM; IC50 ([1]; read-out: Suppression of cytokine production, GzB (IC50), CD3/CD28 stimulation): > 10 µM; IC50 ([1]; read-out: Suppression of cytokine production, GzB (IC50), KIP-1 stimulation): > 10 µM; IC50 ([1]; read-out: Suppression of cytokine production, IFNg (IC50), CD3/CD28 stimulation): > 10 µM; IC50 ([1]; read-out: Suppression of cytokine production, IFNg (IC50), KIP-1 stimulation): > 10 µM; IC50 ([1]; read-out: Suppression of cytokine production, IL-2Ra (IC50), CD3/CD28 stimulation): > 10 µM; IC50 ([1]; read-out: Suppression of cytokine production, IL-2Ra (IC50), K562-CD19 stimulation): > 10 µM; IC50 ([1]; read-out: Suppression of cytokine production, IL-2Ra (IC50), KIP-1 stimulation): > 10 µM; IC50 ([1]; read-out: Suppression of cytokine production, IL-8 (IC50), CD3/CD28 stimulation): > 10 µM; IC50 ([1]; read-out: Suppression of cytokine production, IL-8 (IC50), K562-CD19 stimulation): > 10 µM; IC50 ([1]; read-out: Suppression of cytokine production, IL-8 (IC50), KIP-1 stimulation): > 10 µM; IC50 ([1]; read-out: Suppression of cytokine production, IL-10 (IC50), CD3/CD28 stimulation): > 10 µM; IC50 ([1]; read-out: Suppression of cytokine production, MIG (IC50), CD3/CD28 stimulation): > 10 µM; IC50 ([1]; read-out: Suppression of cytokine production, MIP-1a (IC50), CD3/CD28 stimulation): > 10 µM; IC50 ([1]; read-out: Suppression of cytokine production, MIP-1a (IC50), KIP-1 stimulation): > 10 µM; IC50 ([1]; read-out: Suppression of cytokine production, MIP-1b (IC50), CD3/CD28 stimulation): > 10 µM; IC50 ([1]; read-out: Suppression of cytokine production, MIP-1b (IC50), KIP-1 stimulation): > 10 µM; IC50 ([1]; read-out: Suppression of cytokine production, Perforin (IC50), CD3/CD28 stimulation): > 10 µM; IC50 ([1]; read-out: Suppression of cytokine production, Perforin (IC50), KIP-1 stimulation): > 10 µM

**Q.** With C[C@H]1C[C@@H]2[C@H]([C@@H](O)C[C@@]3(C)[C@H]2CC[C@]3(O)C(=O)CO)[C@@]2(C)C=CC(=O)C=C12 [methylprednisolone] as the compound, how does the “% viability” value ([2]; dose 1000 nM, day 4) read?
**A.** 44.3%

**Q.** And the “% viability” value ([2]; dose 1000 nM, day 12)?
**A.** 62.6%

**Q.** And the “% viability” value ([2]; dose 5000 nM, day 4)?
**A.** 46.6%

**Q.** What about the “% viability” value ([2]; dose 5000 nM, day 8) of the same compound?
**A.** 59.1%

**Q.** What about the “% viability” value ([2]; dose 5000 nM, day 12) of the same compound?
**A.** 58.9%

**Q.** What about the “PPB adj. in Vitro concentration (free)” value [3] of the same compound?
**A.** 670 nM

**Q.** And the “PPB adj. in Vitro concentration (total)” value [3]?
**A.** 2.56 µM

**Q.** And the “clinically relevant dose level (in vitro concentration)” value [3]?
**A.** ~2.5 µM

**Q.** And the Cmax ([3]; 100 mg)?
**A.** 960 ng/mL

**Q.** And the “Cmax (ng/ml) (free)” value ([3]; 100 mg)?
**A.** 251 ng/mL

**Q.** What about the “impact on CAR-T serial killing (percent cytotoxicity)” value [4] of the same compound?
**A.** differential impacts

**Q.** And the viability at 0 day, 1000 nM [5]?
**A.** 75%

**Q.** And the viability at 0 day, 5000 nM [5]?
**A.** 75%

**Q.** And the viability at 4 day, 1000 nM [5]?
**A.** 58.1%

**Q.** And the viability at 4 day, 5000 nM [5]?
**A.** 49.4%

**Q.** What about the viability at 8 day, 1000 nM [5] of the same compound?
**A.** 69.1%

**Q.** And the viability at 8 day, 5000 nM [5]?
**A.** 66%

**Q.** What about the viability at 12 day, 1000 nM [5] of the same compound?
**A.** 76.3%

**Q.** And the viability at 12 day, 5000 nM [5]?
**A.** 71.9%

**Q.** And the Protein binding [6]?
**A.** 78%

**Q.** What about the pSTAT3 [7, 8] of the same compound?
**A.** 25867

**Q.** And the pSTAT4 [7, 8]?
**A.** 11225

**Q.** And the pSTAT5 [7, 8]?
**A.** 14781

**Q.** And the pSTAT3 ([7]; IL-6 + drug 0.125 uM)?
**A.** 30520

**Q.** And the pSTAT4 ([7]; IL-6 + drug 0.125 uM)?
**A.** 14740

**Q.** What about the pSTAT5 ([7]; IL-6 + drug 0.125 uM) of the same compound?
**A.** 18739

**Q.** What about the pSTAT3 ([7]; IL-6 + drug 0.5 uM) of the same compound?
**A.** 30901

**Q.** What about the pSTAT4 ([7]; IL-6 + drug 0.5 uM) of the same compound?
**A.** 14903

**Q.** And the pSTAT5 ([7]; IL-6 + drug 0.5 uM)?
**A.** 20208

**Q.** And the pSTAT3 ([7]; IL-6 + drug 1 uM)?
**A.** 28287

**Q.** And the pSTAT4 ([7]; IL-6 + drug 1 uM)?
**A.** 14989

**Q.** What about the pSTAT5 ([7]; IL-6 + drug 1 uM) of the same compound?
**A.** 18668

**Q.** And the pSTAT3 ([7]; IL-6 + drug 5 uM)?
**A.** 25433

**Q.** And the pSTAT4 ([7]; IL-6 + drug 5 uM)?
**A.** 11282

**Q.** What about the pSTAT5 ([7]; IL-6 + drug 5 uM) of the same compound?
**A.** 15142
